Data as given in patent US7494669B2, “Delivery of physiological agents with in-situ gels comprising anionic polysaccharides” (priority 2001, dated 2009).
Read-outs that look alike come from different tables or passages of the source.

Assays:
[1] = Gelation of HMW Aloe pectin solution on mixing with divalent cation salts; format: physicochemical; design: key: + indicates whole gel formation; ± partial gel formation; − no gel formation and solution remains clear and homogenous
Protocol: A 0.6% (w/v) HMW Aloe pectin solution in water was mixed with calcium chloride dihydrate solutions at various concentrations, at an 1:1 ratio (1 ml to 1 ml) to achieve a final polymer concentration of 0.3% (w/v) and a final calcium chloride dihydrate concentration from 0.0019-0.5% (w/v). The mixtures were immediately vortexed together, then the tubes were kept at room temperature and observed over time.

[2] = Gel frontal migration assay with serum; format: physicochemical; conditions: 3 mg/ml pectin with 0.0039% or 0.0078% calcium chloride on normal calf serum
Source text: Body fluids such as blood, lacrimal fluid, lung fluid and nasal secretions contain calcium ions ([…] in blood, for example). Since Aloe pectin forms calcium gel, the role of calcium in the in-situ gelation of Aloe pectin was examined using an in vitro gelling assay with animal serum that simulates in-situ gel formation. This in vitro assay is described as a gel frontal migration assay. Animal serum was placed at the bottom of a glass tube and the Aloe pectin solution was layered on top of the serum (the pectin solution may also be placed at the bottom of the tube dependent on the density of the test solution in relation to the pectin solution). Tissue culture grade normal calf serum was used. […]
Gel formation was immediate at the contact line (interface of the solutions) and the gel phase or gel front gradually extended upward in the pectin solution over time. […] The thickness of the gel formed at the interface can be measured over time (such measurements are referred to as “gel length” hereinbelow).
The gel frontal migration assay described above was used. […] After 18 hrs at room temperature, the length of gels formed (i.e. gel thickness) was measured. […]
The gel frontal migration assay described above was used. […] The length of gels formed was measured 18 hrs later. […]

[3] = test system: cells surrounding the gel; assay: Local delivery of bFGF by Aloe pectin in-situ gel; format: in vivo, mice
Source text: For growth factors to exert local effect on tissues surrounding the administration site, they need to be delivered in a matrix to allow them to be released in a slow or sustained manner. A delivery in saline or buffer alone is not effective in this regard. In this example, a growth factor (bFGF) was used. bFGF (basic fibroblast growth factor or FGF-2) is a growth factor known to stimulate fibroblast proliferation and angiogenesis or blood vessel formation. It was mixed with Aloe pectin (0.5%, w/v) in physiological saline at a concentration of 1-10 μg/ml and then injected subcutaneously into the lower left or right side of abdominal region of mice. One side received the control (pectin alone), and the other side received the bFGF-containing preparation. The in-situ gels from two mice were harvested along with skin at days 5-10 and subjected to fixation in formalin, sectioning, and H&E staining. Two identical areas, at either end of the gel, vertically between the gel surface and the skin muscle layer and horizontally 510 μm inward from the lateral end of the gel were selected, and the cells in these two selected areas from each gel were numerated using the NIH image software.

[4] = 0.3% (w/v) HMW Aloe pectin, salt 0 % w/v final
[5] = 0.3% (w/v) HMW Aloe pectin, salt 0.0019 % w/v final
[6] = 0.3% (w/v) HMW Aloe pectin, salt 0.0039 % w/v final
[7] = 0.3% (w/v) HMW Aloe pectin, salt 0.0156 % w/v final
[8] = 0.3% (w/v) HMW Aloe pectin, salt 0.0313 % w/v final
[9] = 0.3% (w/v) HMW Aloe pectin, salt 0.0625 % w/v final
[10] = 0.3% (w/v) HMW Aloe pectin, salt 0.125 % w/v final
[11] = 0.3% (w/v) HMW Aloe pectin, salt 0.25 % w/v final
[12] = 0.3% (w/v) HMW Aloe pectin, salt 0.5 % w/v final

[Cl-].[Cl-].[Zn+2] [ZnCl2, zinc chloride]
Gel formation on mixing with HMW Aloe pectin [1, 4]: − | Gel formation on mixing with HMW Aloe pectin [1, 5]: − | Gel formation on mixing with HMW Aloe pectin [1, 6]: − | Gel formation on mixing with HMW Aloe pectin ([1]; 0.3% (w/v) HMW Aloe pectin, salt 0.0078 % w/v final): − | Gel formation on mixing with HMW Aloe pectin [1, 7]: ± | Gel formation on mixing with HMW Aloe pectin [1, 8]: + | Gel formation on mixing with HMW Aloe pectin [1, 9]: + | Gel formation on mixing with HMW Aloe pectin [1, 10]: + | Gel formation on mixing with HMW Aloe pectin [1, 11]: + | Gel formation on mixing with HMW Aloe pectin [1, 12]: +

O.O.[Ca+2].[Cl-].[Cl-] [CaCl2•2H2O, calcium chloride dihydrate]
Gel formation on mixing with HMW Aloe pectin [1]: − | Gel formation on mixing with HMW Aloe pectin [1, 4]: − | Gel formation on mixing with HMW Aloe pectin [1, 5]: − | Gel formation on mixing with HMW Aloe pectin [1, 6]: − | Gel formation on mixing with HMW Aloe pectin [1, 7]: ± | Gel formation on mixing with HMW Aloe pectin [1, 8]: + | Gel formation on mixing with HMW Aloe pectin [1, 9]: + | Gel formation on mixing with HMW Aloe pectin [1, 10]: + | Gel formation on mixing with HMW Aloe pectin [1, 11]: + | Gel formation on mixing with HMW Aloe pectin [1, 12]: + | Gel formation versus control without added calcium chloride [2]: gel formation increased

bFGF: basic fibroblast growth factor (FGF-2), delivered in 0.5% Aloe pectin in physiological saline
Blood vessel formation surrounding the gel ([3]; bFGF 10 μg/ml): increase in blood vessel formation | Cell number in bFGF-treated relative to the control (pectin alone) ([3]; bFGF 1-10 μg/ml in 0.5% Aloe pectin, subcutaneous, days 5-10): more than 2 times
